# Reference: US6881824B1, “Peptides suitable for use in antigen specific immunosuppressive therapy” (Akzo Nobel N.V., priority 1996, dated 2005)
# Ends that are not written are not given here.
# Tests used:
# [1] = test system: PBMC from healthy donors carrying the DR4 (DRB1*0401) specificity; assay: Peptide-induced proliferative responses of PBMC from healthy donors; assay type: cell-based, human; details: for Peptide-induced proliferative response of PBMC, HD 230: healthy donor 230, 0401, R
# Experimental: Peripheral blood samples from 5 healthy donors carrying the DR4(DRB1*0401) specificity were obtained with informed consent and included in this study as a control.
# (§1) In order to identify T-cell epitopes within HC gp-39, 59 peptides of 16 AA in length, overlapping by 10 AA were tested for their capacity to induce a proliferative response in PBMC from RA patients and healthy controls carrying the DR4 (DRB1*0401) specificity (Table 1).
# (§2) PBMC obtained from heparinized venous peripheral blood were isolated by standard centrifugation on a Ficoll-Paque gradient. Cells were cultured in four-fold at a concentration of 1,5×10^5 cells/well in medium supplemented with 10% heat-inactivated, autologous plasma, L-glutamine, 2-ME and antibiotics in flatbottomed microtiter plates. Cells were incubated in medium alone or in the presence of phytohaemagglutinin (PHA) (2:5 μg/ml) to assert cell viability, or in the presence of 10 or 100 μg/ml of the HC gp-39-derived peptides. In several cases, sets of 2 or 3 sequential peptides were tested due to limited PBMC numbers of individual donors. Cultures were incubated in a total volume of 210 μl for 7 days at […] in a humidified atmosphere of 5% CO2. Cultures were pulsed during the last 18 hours with 0.25 μCi ^3H-thymidine ([^3H]TdR). Cells were harvested on glassfiber filters and [^3H] TdR incorporation was measured by gas scintillation (Packard Matrix 96 βcounter). Only peptides inducing a proliferative response at both 10 and 100 μg/ml were considered to contain a T-cell epitope. Responses were defined positive if stimulation index values (SI, antigen-specific counts per 5 min (cp5 m)/background cp5 m) exceeded or equaled 2.
# (§3) T-cell reactivity to HC gp-39-derived peptide as analyzed by measuring the PBMC proliferative response in DR4 (DRB1*0401)-positive RA patients and healthy donors. Proliferative responses were tested in autologous plasma. In Table IIIA and IIIB the results of 7 experiments are presented showing the responses of RA patients (Table IIIA) and the responses of healthy donors (Table IIIB) to 59 overlapping sequences derived from HC gp-39.
# [2] = test system: PBMC from RA patients carrying the DR4 (DRB1*0401) specificity; assay: Peptide-induced proliferative responses of PBMC from RA patients; assay type: cell-based, human; details: for Peptide-induced proliferative response of PBMC, RA 272: RA patient 272, 0401, R; for Peptide-induced proliferative response of PBMC, RA 276: RA patient 276, 0401, R; for Peptide-induced proliferative response of PBMC, RA 286: RA patient 286, 0401, R
# Experimental: This study included 7 DR4(DRB1*0401)-positive patients diagnosed as suffering from RA according to the ARA criteria (Arnett et al., (1988), Arthritis Rheum. 31, 315). Peripheral blood samples were obtained with informed consent. There were five women and two men aged 46-79 years. Their duration of disease ranged from over 10 to over 30 years. Three out of 7 patients had at least 3 swollen joints. […] All patients were on medication: Four patients were treated with prednisone, three patients received anti-rheumatic agents and 4 patients were treated with NSAID's as well.
# as §1, §2, §3
# [3] = test system: PBMC from RA patients and healthy controls carrying the DR4 (DRB1*0401) specificity; assay: Proliferative responses of blood mononuclear cells, RA patients and healthy donors taken together; assay type: cell-based, human; details: for Responses to the individual peptides (PBMC proliferation), identifying T-cell epitopes: any donor
# Experimental: as §1, §2, §3
# [4] = molecular target: T1, DR4 (DRB1*0401) molecules (Homo sapiens, UniProt P01903+P01911, A100K/A169T/F76Y/I96L/K127E/L162R/M171V/N62H/P40V/Q125Y/R42H/S133A/S149N/S66Y/V115G/V209L/W38E); assay: Peptide HLA-DR binding assay (semi-quantitative competition binding); details: for IC50: competition with biotinylated marker peptide HA 309 Y→F, pH5.0, 44 hr RT
# T1 construct: molecules were purified from the homozygous EBV-transformed human B lymphoblastoid cell lines Huly138IC2 and BM92 using the mAb; endogenous in cells
# Experimental: DR4 (DRB1*0401) and DR4 (DRB1*0404) molecules were purified from the homozygous EBV-transformed human B lymphoblastoid cell lines Huly138IC2 and BM92 using the mAb t243, directed against a monomorphic determinant on the DR-complex (Lampson, L. A and R. Levy (1980), J. Immunol. 125:293 299).
# The peptide binding studies were performed using a semi-quantitative competition binding assay (Joosten et al 1994, Int. Immunol. 6, 751). Briefly, purified HLA-DR molecules (30 nM DR4(DRB1*0401) or 15 nM DR4 (DRB1*0404) were incubated at pH5.0 with 50 nM biotinylated marker peptide (HA 309y→F) and a concentration range of competitor peptide in a final volume of 25 μl binding buffer (PBS containing 0.01% […], 0.05% NP-40, 5% DMSO, 1 mM AEBSF, 1 mM N-ethyl maleimide, 8 mM EDTA and 10 μm pepstatin A). After 44 hr of incubation at RT, HLA DR bound marker peptide was separated from free marker peptide using a 96 well vacuum dotblot apparatus (Hybri. dot, BRL) and a nitrocellulose membrane (Hybond ECL, Amersham, UK). The nitrocellulose filters were blocked with 0.5% DNA blocking reagent (Boehringer) in 0.1 M maleic acid, 150 mM NaCl, pH7.5.
# After 0.5-1 hr, the filters were washed in PBS, 0.05% Tween 20 (Sigma) and incubated with Strepcavidin-HRPO (Southern Biotechnology) in a 1:10.000 dilution. Biotinylated peptides were detected by enhanced chemiluminescence using a Western Blot ECL kit (Amersham). Exposure of the preflashed films (Hyperfilm-ECL, Amersham) was for 10 min. The spots were analysed by scanning the films and using Image Quant/Excel software for analysis.
# The affinity of a given peptide for binding DRB1*0401-encoded molecules was related to competition with the marker peptide. This relative binding affinity was defined as the peptide concentration at which the signal was reduced to 50% (IC50).
# [5] = molecular target: T2, DR4 (DRB1*0401) molecules purified from the homozygous EBV-transformed human B lymphoblastoid cell line … (human, UniProt P01903 26-254); assay: competition binding assay on purified DR4(DRB1*0401)
# T2 construct: mature; That form is inferred from purification of the native complex
# [6] = molecular target: T2, DR4 (DRB1*0401) molecules purified from …
# [7] = 100 and 10 microgram/ml, 7 days, 3H-thymidine incorporation
Molecule,"Peptide-induced proliferative response of PBMC, HD 155 ([1]; healthy donor 155, 0401, R, 100 and 10 microgram/ml, 7 days, 3H-thymidine incorporation)",Presence of T-cell epitopes confirmed by PBMC of healthy donor 230 [1],"Peptide-induced proliferative response of PBMC, HD 230 [1, 7]","Peptide-induced proliferative response of PBMC, HD 235 ([1]; healthy donor 235, 0401, R, 100 and 10 microgram/ml, 7 days, 3H-thymidine incorporation)","Peptide-induced proliferative response of PBMC, RA 272 [2, 7]","Response of PBMC from RA patient 272 to individual peptides, in words [2]","Responses to the individual peptides (PBMC proliferation), identifying T-cell epitopes [3]","Relative affinity of binding to DR4 (DRB1*0401), in words [4]",IC50 ([4]; Table IIIA),IC50 ([4]; Table IIIB),"Peptide-induced proliferative response of PBMC, RA 259 ([2]; RA patient 259, 0401, R, 100 and 10 microgram/ml, 7 days, 3H-thymidine incorporation)","Peptide-induced proliferative response of PBMC, RA 262 ([2]; RA patient 262, 0401, R, 100 and 10 microgram/ml, 7 days, 3H-thymidine incorporation)","Peptide-induced proliferative response of PBMC, RA 276 [2, 7]","Peptide-induced proliferative response of PBMC, RA 286 [2, 7]","Peptides or sets of peptides most frequently recognized ([3]; overall, all donors)",binding result [5],IC50 [6]
"DYAVGYMLRLGAPASK [compound 37, DYAVGYMLRLGAPASK]",pos (positive responses to both 100 and 10 microgram/ml of peptide or sets of peptides (SI>2 were regarded positive)),confirmed the presence of T-cell epitopes,pos (positive responses to both 100 and 10 microgram/ml of peptide or sets of peptides (SI>2 were regarded positive)),pos (positive responses to both 100 and 10 microgram/ml of peptide or sets of peptides (SI>2 were regarded positive)),pos (positive responses to both 100 and 10 microgram/ml of peptide or sets of peptides (SI≧2 were regarded positive)),appeared to respond,observed in one or more donors,relatively high affinity,< 1000 nM,< 1000 nM,,,,,,,
"LDRFLCTHIIYSFANI [compound 5, LDRFLCTHIIYSFANI]",,confirmed the presence of T-cell epitopes,pos (positive responses to both 100 and 10 microgram/ml of peptide or sets of peptides (SI>2 were regarded positive)),,pos (positive responses to both 100 and 10 microgram/ml of peptide or sets of peptides (SI≧2 were regarded positive)),appeared to respond,observed in one or more donors,relatively high affinity,< 1000 nM,< 1000 nM,pos (positive responses to both 100 and 10 microgram/ml of peptide or sets of peptides (SI≧2 were regarded positive)),,,,,,
"QHLDFISIMTYDFHGA [peptide 30, QHLDFISIMTYDFHGA]",,confirmed the presence of T-cell epitopes,pos (positive responses to both 100 and 10 microgram/ml of peptide or sets of peptides (SI>2 were regarded positive)),,pos (positive responses to both 100 and 10 microgram/ml of peptide or sets of peptides (SI≧2 were regarded positive)),appeared to respond,observed in one or more donors,relatively high affinity,< 1000 nM,< 1000 nM,,pos (positive responses to both 100 and 10 microgram/ml of peptide or sets of peptides (SI≧2 were regarded positive)),pos (positive responses to both 100 and 10 microgram/ml of peptide or sets of peptides (SI≧2 were regarded positive)),pos (positive responses to both 100 and 10 microgram/ml of peptide or sets of peptides (SI≧2 were regarded positive)),most frequently recognized,,
"THIIYSFANISNDHID [compound 6, THIIYSFANISNDHID]",,confirmed the presence of T-cell epitopes,pos (positive responses to both 100 and 10 microgram/ml of peptide or sets of peptides (SI>2 were regarded positive)),,pos (positive responses to both 100 and 10 microgram/ml of peptide or sets of peptides (SI≧2 were regarded positive)),appeared to respond,observed in one or more donors,relatively high affinity,< 1000 nM,< 1000 nM,,,pos (positive responses to both 100 and 10 microgram/ml of peptide or sets of peptides (SI≧2 were regarded positive)),pos (positive responses to both 100 and 10 microgram/ml of peptide or sets of peptides (SI≧2 were regarded positive)),,,
"YKLVCYYTSWSQYREG [peptide 1, YKLVCYYTSWSQYREG]",,confirmed the presence of T-cell epitopes,pos (positive responses to both 100 and 10 microgram/ml of peptide or sets of peptides (SI>2 were regarded positive)),,pos (positive responses to both 100 and 10 microgram/ml of peptide or sets of peptides (SI≧2 were regarded positive)),appeared to respond,observed in one or more donors,relatively high affinity,< 1000 nM,< 1000 nM,,,,,,,
TFIKSVPPFLRTHGFD [HC gp-39 peptide 17 (residues 118-133)],,,,,,,,,,,,,,,,binds,1000 to 10000 nM
